Experimental data as given in US8597618B1, “Dentifrice composition” (Toms's of Maine, Inc., priority 2012, dated 2013).
Read-outs that look alike come from different tables or passages of the source.

Key:
[1] = Foaming capability of individual surfactant components admixed with water and agitated; assay type: physicochemical; settings: for Foaming ability: numerical score, 1 representing an excellent foamer and 5 a poor foamer
Method: The foaming ability was determined by a numerical score, 1 representing an excellent foamer and 5 representing a poor foamer

EpiOral ORL-200 model [2] = assay: EpiOral in Vitro Irritation Test Method (EpiOral ORL-200 model); settings: for ET-50 Time: time at which 50% of cells are viable, test terminated at 240 minutes
Method: (§1) To evaluate the potential irritancy of the dentifrice formulae, surfactant components were diluted in water and tested using an EpiOral in Vitro Irritation Test Method, in particular the EpiOral ORL-200 model, a known model for testing irritant potential of dentifrice components.
(§2) In the EpiOral test, the dentifrice components were tested to determine the parameter “ET-50” which represents the time at which 50% of cells are viable: the higher the ET-50 time then the less irritating the material.
(§3) Dentifrice compositions incorporating different surfactant systems were also subjected to the EpiOral test.

EpiOral ORL-200 model [3] = tested on: EpiOral ORL-200 model
Method: as §1, §2, §3

| foaming ability as compared to sodium lauryl sulfate ([1]; individual surfactant components, in words) | ET-50 Time (EpiOral ORL-200 model [3]) | Compound | Foaming ability [1] | ET-50 Time (EpiOral ORL-200 model [2]; surfactant component 1 wt % in water) | ET-50 Time (EpiOral ORL-200 model [2]; surfactant component 2 wt % in water) | potential irritancy (EpiOral ORL-200 model [2]; surfactant components in water at different concentrations, in words) | potential irritancy (EpiOral ORL-200 model [3]) |
| --- | --- | --- | --- | --- | --- | --- | --- |
| – | – | CCCCCCCCCCCCOS(=O)(=O)[O-].[Na+] [Sodium lauryl sulfate, sodium lauryl sulfate] | 1 | 115.4 min | 48.3 min | high | – |
| significantly poorer | >240 min | lauryl glucoside | 3 | – | – | – | very low |
